In assay [1] the target is T1, hTAS1R2 + hTAS1R3 W775A^6.48 (Homo sapiens, UniProt Q7RTX0+Q8TE23, W775A).
T1 construct: expressed in transfected cells; host or cells: HEK293T cells stably expressing G16Gust44
T1 sequence (Q8TE23 20-839): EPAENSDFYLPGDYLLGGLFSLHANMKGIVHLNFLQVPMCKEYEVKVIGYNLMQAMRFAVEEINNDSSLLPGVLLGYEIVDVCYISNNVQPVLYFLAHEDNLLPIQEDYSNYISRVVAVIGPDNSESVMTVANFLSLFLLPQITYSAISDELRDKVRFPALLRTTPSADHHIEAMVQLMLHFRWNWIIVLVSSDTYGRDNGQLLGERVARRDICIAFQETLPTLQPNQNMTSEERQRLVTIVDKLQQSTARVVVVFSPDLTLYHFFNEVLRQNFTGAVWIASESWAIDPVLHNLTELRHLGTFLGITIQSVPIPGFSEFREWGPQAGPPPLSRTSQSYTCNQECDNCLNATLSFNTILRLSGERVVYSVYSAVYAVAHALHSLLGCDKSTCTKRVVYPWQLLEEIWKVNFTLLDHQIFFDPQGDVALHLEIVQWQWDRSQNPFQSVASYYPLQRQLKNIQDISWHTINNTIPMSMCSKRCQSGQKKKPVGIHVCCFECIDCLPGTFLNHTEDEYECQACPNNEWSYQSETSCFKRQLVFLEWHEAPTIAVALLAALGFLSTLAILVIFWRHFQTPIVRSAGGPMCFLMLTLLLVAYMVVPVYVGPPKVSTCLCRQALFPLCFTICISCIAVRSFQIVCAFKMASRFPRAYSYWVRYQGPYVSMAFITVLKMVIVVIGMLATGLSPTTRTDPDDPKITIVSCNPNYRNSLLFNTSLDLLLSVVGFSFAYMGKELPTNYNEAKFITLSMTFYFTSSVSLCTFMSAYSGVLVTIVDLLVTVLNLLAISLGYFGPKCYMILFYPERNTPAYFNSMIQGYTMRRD
T1 sequence (Q7RTX0 21-852 W775A): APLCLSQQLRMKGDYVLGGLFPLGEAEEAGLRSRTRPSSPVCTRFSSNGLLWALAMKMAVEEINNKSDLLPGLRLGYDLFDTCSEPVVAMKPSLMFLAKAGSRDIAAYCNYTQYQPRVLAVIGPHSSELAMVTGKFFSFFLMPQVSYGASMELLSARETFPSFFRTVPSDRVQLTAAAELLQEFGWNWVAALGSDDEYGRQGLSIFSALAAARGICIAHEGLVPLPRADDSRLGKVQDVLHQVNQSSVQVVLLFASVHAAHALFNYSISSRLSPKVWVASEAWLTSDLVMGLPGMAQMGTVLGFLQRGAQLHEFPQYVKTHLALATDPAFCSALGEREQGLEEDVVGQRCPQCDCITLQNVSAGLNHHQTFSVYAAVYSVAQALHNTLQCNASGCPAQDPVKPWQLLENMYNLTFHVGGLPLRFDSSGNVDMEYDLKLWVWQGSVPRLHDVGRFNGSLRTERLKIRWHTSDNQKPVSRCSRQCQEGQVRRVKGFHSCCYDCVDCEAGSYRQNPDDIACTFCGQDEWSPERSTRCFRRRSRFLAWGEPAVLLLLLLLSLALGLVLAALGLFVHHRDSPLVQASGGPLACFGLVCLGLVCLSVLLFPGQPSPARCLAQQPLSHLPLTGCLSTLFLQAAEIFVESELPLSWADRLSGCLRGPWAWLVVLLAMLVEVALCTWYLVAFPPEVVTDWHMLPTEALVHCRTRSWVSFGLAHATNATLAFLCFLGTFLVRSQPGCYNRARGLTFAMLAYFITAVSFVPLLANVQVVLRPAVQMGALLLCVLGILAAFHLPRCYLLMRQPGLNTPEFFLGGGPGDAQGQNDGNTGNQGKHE
The assay is described as follows: Calcium response (FLIPR), hTAS1R3 mutant coexpressed with hTAS1R2. Conditions: for EC50 / Emax: variant W775A^6.48; for EC50: (>) EC50 not calculable because saturation is not reached; for Emax: read-out: maximal signal (% of wt). Type of assay: cell-based. As for the experimental part: (§1) The cDNAs for TAS1Rs tagged at the C-terminus with the herpes simplex virus glycoprotein D (HSV) were transiently transfected into HEK293T cells stably expressing the chimeric G-protein subunit G16Gust44 [44] using Lipofectamine 2000 (Invitrogen, Carlsbad, CA) according to the manufacturer's protocol. 3–4 hours after transfection, DMEM was replaced by low-glucose DMEM supplemented with GlutaMAX and 10% dialyzed FBS (Invitrogen, Carlsbad, CA). 24 h post transfection, cells were loaded for 1 h with the calcium sensitive dye Fluo4-AM (2 μg/ml in DMEM, Molecular Probes, Carlsbad, CA). […] We monitored calcium mobilization following receptor stimulation with sweet tastants by an automated fluorometric imaging plate reader (FLIPR, Molecular Devices, Sunnyvale, CA). Compounds used as stimuli (Sigma-Aldrich, St. Louis, MO; Merck, Whitehouse Station, NJ) were dissolved in C1 solution. All data were collected from at least three independent experiments carried out in duplicate. The obtained calcium signals were corrected for the response of mock transfected cells and normalized to the fluorescence of cells prior to the application of the stimulus using ΔF/F = (F-F0)/F0.

Assay [2] addresses T2, hTAS1R2 + hTAS1R3 S726A^5.39 (Homo sapiens, UniProt Q7RTX0+Q8TE23, S726A).
T2 construct: expressed in transfected cells; host or cells: HEK293T cells stably expressing G16Gust44
T2 sequence (Q7RTX0 21-852 S726A): T1 sequence (Q7RTX0 21-852 W775A) with S706A, A755W
T2 sequence (Q8TE23 20-839): T1 sequence (Q8TE23 20-839)
The description is as above. It is filed as cell-based. Conditions: variant S726A^5.39; for Emax: read-out: maximal signal (% of wt). As for the experimental part: as §1

Where a chain is given by its changes, count along the chain named. Where a SMILES comes first, the peptide text is derived from it.

The term EC50 denotes the concentration giving half of the maximal effect.

As for `COc1ccc(CCC(=O)c2c(O)cc(O[C@@H]3O[C@H](CO)[C@@H](O)[C@H](O)[C@H]3O[C@@H]3O[C@@H](C)[C@H](O)[C@@H](O)[C@H]3O)cc2O)cc1O` [NHDC, neohesperidin dihydrochalcone], the EC50 in assay [1] was greater than 3000 µM; in assay [2], 900 ± 300 µM. The Emax in assay [1] was found to be 30 ± 41%; in assay [2], 60 ± 50%.

`O=S(=O)(O)NC1CCCCC1` [cyclamate]: the receptor activation entry in assay [1] (mutant W775A^6.48, any tested concentration) is listed as “could not be activated at any tested concentration”. Also, the EC50 in assay [2] was greater than 10000 µM.

Take `COC(=O)[C@H](Cc1ccccc1)NC(=O)[C@@H](N)CC(=O)O` [aspartame] (HELM PEPTIDE1{D.F.[CO[*:1]]}$$$$V2.0): in assay [1], the EC50 is 1900 ± 200 µM and the Emax was 20 ± 30%. Besides, in assay [2], the EC50 was 900 ± 300 µM and the Emax was 50 ± 2%.

These data come from paper PMC2099433, “The binding site for neohesperidin dihydrochalcone at the human sweet taste receptor” (BMC Structural Biology, 2007).
